Reference: US20180051309A1, “METHODS TO ASSESS MONITOR AND CONTROL BACTERIAL BIOFILMS” (ExxonMobil Research and Engineering Company, priority 2016, published 2018)

System: prophage regions DVU0189-DVU0221 and DVU2847-DVU2879
Test: normalized gene expression (FPKM) of two prophage regions in planktonic and biofilm samples
Assay type: cell-based, Desulfovibrio vulgaris
Settings: biofilm controlled via indole, FIG. 1
Excerpt: Overexpression of prophages is observed in biofilm samples when compared to planktonic samples.

For c1ccc2[nH]ccc2c1 [indole], which phage genes expression is on record?
Its phage genes expression is “repressed phage genes expression”.
